Experimental data taken from PMC6287766 (Molecular cancer therapeutics, 2017).

Test system: murine brainstem glioma (mBSG) cells
Experiment: Cell viability / proliferation IC50
Type: cell-based
Settings: Mus musculus, read-out: IC50, cell viability

IC50	SMILES
19 ± 20 nM	Cc1nc(Nc2ncc(C(=O)Nc3c(C)cccc3Cl)s2)cc(N2CCN(CCO)CC2)n1 [dasatinib]
710 ± 120 nM	COc1cccc2c1C(=O)c1c(O)c3c(c(O)c1C2=O)C[C@@](O)(C(=O)CO)C[C@@H]3O[C@H]1C[C@H](N)[C@H](O)[C@H](C)O1 [doxorubicin]
